Values of other authors, collected in patent publication US20190275032A1 (Boehringer Ingelheim International GmbH, priority 2016, published 2019).

Legend:
PDGFR-α and-β = conditions: normal human lung fibroblasts in vitro
patients with IPF [1] = conditions: both INPULSIS trials, nintedanib 150 mg twice daily versus placebo
patients with IPF [2] = system: patients with IPF

| SMILES | total lung collagen (mouse models of IPF; IPF mouse models) | lymphocyte and neutrophil counts in the bronchoalveolar lavage fluid (mouse models of IPF; two different mouse models of IPF) | exposure in patients with hepatic impairment (Child Pugh A, Child Pugh B) | elimination via biliary/faecal excretion (in vivo) [%] | PDGFR-α and -β activation (PDGFR-α and-β) | reduction of the annual rate of decline in FVC (mL/year) (patients with IPF [1]) | PDGF- or FGF-2-stimulated migration of lung fibroblasts (human lung fibroblasts; fibroblasts from patients with IPF) | TGF-β-induced fibroblast to myofibroblast transformation (human lung fibroblasts; primary human lung fibroblasts from IPF patients) | primary endpoint of change from baseline FVC % predicted (patients with IPF [2]; ASCEND Phase III trial) | primary FVC lung function endpoint (patients with IPF [2]; international Phase III CAPACITY program) | decline of vital capacity (patients with IPF [2]; two local trials in Japan) |
| --- | --- | --- | --- | --- | --- | --- | --- | --- | --- | --- | --- |
| COC(=O)c1ccc2c(c1)NC(=O)/C2=C(\Nc1ccc(N(C)C(=O)CN2CCN(C)CC2)cc1)c1ccccc1 [Nintedanib, 3-Z-[1-(4-(N-((4-methyl-piperazin-1-yl)-methylcarbonyl)-N-methyl-amino)-anilino)-1-phenyl-methylene]-6-methoxycarbonyl-2-indolinone] | significant reductions | significant reductions | Exposure increased | > 90 | inhibit | approximately 50% | attenuated | inhibited | – | – | – |
| Cc1ccc(=O)n(-c2ccccc2)c1 [Pirfenidone, 5-methyl-1-phenyl-2(1H)-Pyridinone] | – | – | – | – | – | – | – | – | met the primary endpoint | demonstrated efficacy on the primary FVC lung function endpoint in only one of two confirmatory trials | reduced decline |
